Reference: patent US20100267561A1, “HERBICIDAL PYRIDAZINONE DERIVATIVES” (priority 2007, published 2010)

What was measured:
Assay in all cases: Test B pre-/postemergence plant response
Format in all cases: in vivo
[1] = tested on: Russian thistle (Salsola iberica); conditions: Preemergence; for Russian Thistle plant response rating: scale 0 to 100
Procedure, shortened: (§1)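 Preemergence and postemergence (plants 2-18 cm, 1- to 4-leaf stage) applications used test chemicals in a non-phytotoxic solvent with surfactant. Plants were held in a greenhouse 13 to 15 days, then rated visually against controls on a 0-100 scale (0 no effect, 100 complete control).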

[2] = tested on: blackgrass (Alopecurus myosuroides); conditions: for Blackgrass plant response rating: 8 g ai/ha
Procedure, shortened: as §1

[3] = tested on: catchweed bedstraw (Galium aparine); conditions: Preemergence; for Galium plant response rating: scale 0 to 100
Procedure, shortened: as §1

[4] = tested on: cocklebur (Xanthium strumarium); conditions: for Cocklebur plant response rating: 8 g ai/ha
Procedure, shortened: as §1

[5] = tested on: common ragweed (Ambrosia elation)
Procedure, shortened: as §1

corn (Zea mays) = tested on: corn (Zea mays)
Procedure, shortened: as §1

[6] = tested on: goosegrass (Eleusine indica)
Procedure, shortened: as §1

[7] = tested on: johnsongrass (Sorghum halepense)
Procedure, shortened: as §1

kochia (Kochia scoparia) = tested on: kochia (Kochia scoparia)
Procedure, shortened: as §1

[8] = tested on: large crabgrass (Digitaria sanguinalis)
Procedure, shortened: as §1

[9] = tested on: velvetleaf (Abutilon theophrasti)
Procedure, shortened: as §1

wild oat (Avena fatua) = tested on: wild oat (Avena fatua)
Procedure, shortened: as §1

[10] = tested on: woolly cupgrass (Eriochloa villosa)
Procedure, shortened: as §1

[11] = tested on: yellow nutsedge (Cyperus esculentus)
Procedure, shortened: as §1

[12] = 31 g ai/ha, scale 0 to 100 (0 no effect, 100 complete control)
[13] = 62 g ai/ha, 0 to 100 scale, 0 no effect, 100 complete control
[14] = Postemergence, 16 g ai/ha, scale 0 to 100
[15] = Postemergence, 31 g ai/ha, scale 0 to 100
[16] = Postemergence, 62 g ai/ha, scale 0 to 100, 0 no effect, 100 complete control
[17] = Preemergence, 16 g ai/ha, scale 0 to 100 (0 no effect, 100 complete control)
[18] = Preemergence, 31 g ai/ha, scale 0 to 100 (0 no effect, 100 complete control)
[19] = Preemergence, 62 g ai/ha, 0 to 100 scale, 0 no effect, 100 complete control
[20] = 8 g ai/ha, postemergence, 0-100 scale
[21] = Preemergence, 8 g ai/ha, scale 0 to 100
[22] = Preemergence, 16 g ai/ha, scale 0 to 100

In the case of `Cc1cc(-c2ccc(Cl)cc2)nn1-c1c(OC(=O)OCC(C)C)cnn(C)c1=O` [Compound 57], the “Plant response rating, Russian Thistle” value [1, 12] is reported as 0, the “Plant response rating, Russian Thistle” value [1, 13] is reported as 0 and the “Russian Thistle plant response rating” value ([1]; 8 g ai/ha) is reported as 0. For the same compound, the “Russian Thistle plant response rating” value ([1]; 16 g ai/ha) was 0, the “Blackgrass plant response rating” value ([2]; postemergence, 0-100 scale) was 40 and the “Plant response rating, Blackgrass” value [2, 14] was 80. For the same compound, the “Plant response rating, Blackgrass” value [2, 15] was 80, the “Plant response rating, Blackgrass” value [2, 16] was 95 and the “Plant response rating, Blackgrass” value [2, 17] was 100. For the same compound, the “Plant response rating, Blackgrass” value [2, 18] was 100, the “Plant response rating, Blackgrass” value [2, 19] was 100 and the “Blackgrass plant response rating” value ([2]; Preemergence, scale 0 to 100) was 40. The “Plant response rating, Galium” value [3, 12] was 0, the “Plant response rating, Galium” value [3, 13] was 0 and the “Galium plant response rating” value ([3]; 8 g ai/ha) was 0. For the same compound, the “Galium plant response rating” value ([3]; 16 g ai/ha) was 0, the “Cocklebur plant response rating” value ([4]; postemergence, 0-100 scale) was 0 and the “Plant response rating, Cocklebur” value [4, 14] was 0. For the same compound, the “Plant response rating, Cocklebur” value [4, 15] was 0, the “Plant response rating, Cocklebur” value [4, 16] was 0 and the “Plant response rating, Cocklebur” value [4, 17] was 0. The “Plant response rating, Cocklebur” value [4, 18] was 0, the “Plant response rating, Cocklebur” value [4, 19] was 0 and the “Cocklebur plant response rating” value ([4]; Preemergence, scale 0 to 100) was 0. The “Ragweed plant response rating” value [5, 20] was 0, the “Plant response rating, Ragweed” value [5, 14] was 0 and the “Plant response rating, Ragweed” value [5, 15] was 0. The “Plant response rating, Ragweed” value [5, 16] was 0, the “Plant response rating, Ragweed” value [5, 18] was 0 and the “Plant response rating, Ragweed” value [5, 19] was 0. For the same compound, the “Ragweed plant response rating” value [5, 21] was 0, the “Ragweed plant response rating” value [5, 22] was 0 and the “Corn plant response rating” value (corn (Zea mays); [20]) was 0. For the same compound, the “Plant response rating, Corn” value (corn (Zea mays); [14]) was 0, the “Plant response rating, Corn” value (corn (Zea mays); [15]) was 98 and the “Plant response rating, Corn” value (corn (Zea mays); [16]) was 100. The “Plant response rating, Corn” value (corn (Zea mays); [18]) was 85, the “Plant response rating, Corn” value (corn (Zea mays); [19]) was 95 and the “Corn plant response rating” value (corn (Zea mays); [21]) was 0. For the same compound, the “Corn plant response rating” value (corn (Zea mays); [22]) was 60, the “Goosegrass plant response rating” value [6, 20] was 65 and the “Plant response rating, Goosegrass” value [6, 14] was 80. For the same compound, the “Plant response rating, Goosegrass” value [6, 15] was 85, the “Plant response rating, Goosegrass” value [6, 16] was 90 and the “Plant response rating, Goosegrass” value [6, 18] was 98. For the same compound, the “Plant response rating, Goosegrass” value [6, 19] was 100, the “Goosegrass plant response rating” value [6, 21] was 0 and the “Goosegrass plant response rating” value [6, 22] was 0. For the same compound, the “Johnsongrass plant response rating” value [7, 20] was 15, the “Plant response rating, Johnsongrass” value [7, 14] was 65 and the “Plant response rating, Johnsongrass” value [7, 15] was 90. The “Plant response rating, Johnsongrass” value [7, 16] was 100, the “Plant response rating, Johnsongrass” value [7, 18] was 90 and the “Plant response rating, Johnsongrass” value [7, 19] was 100. The “Johnsongrass plant response rating” value [7, 21] was 65, the “Johnsongrass plant response rating” value [7, 22] was 90 and the “Kochia plant response rating” value (kochia (Kochia scoparia); [20]) was 0. The “Plant response rating, Kochia” value (kochia (Kochia scoparia); [14]) was 0, the “Plant response rating, Kochia” value (kochia (Kochia scoparia); [15]) was 0 and the “Plant response rating, Kochia” value (kochia (Kochia scoparia); [16]) was 0. The “Plant response rating, Kochia” value (kochia (Kochia scoparia); [18]) was 0, the “Plant response rating, Kochia” value (kochia (Kochia scoparia); [19]) was 0 and the “Kochia plant response rating” value (kochia (Kochia scoparia); [21]) was 0. The “Kochia plant response rating” value (kochia (Kochia scoparia); [22]) was 0, the “Crabgrass, Large plant response rating” value [8, 20] was 75 and the “Plant response rating, Crabgrass, Large” value [8, 14] was 95. For the same compound, the “Plant response rating, Crabgrass, Large” value [8, 15] was 98, the “Plant response rating, Crabgrass, Large” value [8, 16] was 100 and the “Plant response rating, Crabgrass, Large” value [8, 18] was 98. For the same compound, the “Plant response rating, Crabgrass, Large” value [8, 19] was 100, the “Crabgrass, Large plant response rating” value [8, 21] was 0 and the “Crabgrass, Large plant response rating” value [8, 22] was 0. The “Velvetleaf plant response rating” value [9, 20] was 0, the “Plant response rating, Velvetleaf” value [9, 14] was 0 and the “Plant response rating, Velvetleaf” value [9, 15] was 0. For the same compound, the “Plant response rating, Velvetleaf” value [9, 16] was 0, the “Plant response rating, Velvetleaf” value [9, 18] was 0 and the “Plant response rating, Velvetleaf” value [9, 19] was 0. The “Velvetleaf plant response rating” value [9, 21] was 0, the “Velvetleaf plant response rating” value [9, 22] was 0 and the “Oat, Wild plant response rating” value (wild oat (Avena fatua); [20]) was 85. For the same compound, the “Plant response rating, Oat, Wild” value (wild oat (Avena fatua); [14]) was 85, the “Plant response rating, Oat, Wild” value (wild oat (Avena fatua); [15]) was 95 and the “Plant response rating, Oat, Wild” value (wild oat (Avena fatua); [16]) was 98. For the same compound, the “Plant response rating, Oat, Wild” value (wild oat (Avena fatua); [18]) was 70, the “Plant response rating, Oat, Wild” value (wild oat (Avena fatua); [19]) was 80 and the “Oat, Wild plant response rating” value (wild oat (Avena fatua); [21]) was 0. The “Oat, Wild plant response rating” value (wild oat (Avena fatua); [22]) was 60, the “Cupgrass, Woolly plant response rating” value [10, 20] was 65 and the “Plant response rating, Cupgrass, Woolly” value [10, 14] was 90. The “Plant response rating, Cupgrass, Woolly” value [10, 15] was 100, the “Plant response rating, Cupgrass, Woolly” value [10, 16] was 100 and the “Plant response rating, Cupgrass, Woolly” value [10, 18] was 85. The “Plant response rating, Cupgrass, Woolly” value [10, 19] was 100, the “Cupgrass, Woolly plant response rating” value [10, 21] was 0 and the “Cupgrass, Woolly plant response rating” value [10, 22] was 20. The “Nutsedge, Yellow plant response rating” value [11, 20] was 0, the “Plant response rating, Nutsedge, Yellow” value [11, 14] was 0 and the “Plant response rating, Nutsedge, Yellow” value [11, 15] was 0. The “Plant response rating, Nutsedge, Yellow” value [11, 16] was 0, the “Plant response rating, Nutsedge, Yellow” value [11, 18] was 0 and the “Plant response rating, Nutsedge, Yellow” value [11, 19] was 0. For the same compound, the “Nutsedge, Yellow plant response rating” value [11, 21] was 0 and the “Nutsedge, Yellow plant response rating” value [11, 22] was 0.
